Source: patent US20250302815A1, “PROTEIN TYROSINE PHOSPHATASE TARGETING LIGANDS” (CALICO LIFE SCIENCES LLC, priority 2021, published 2025)

Legend:
[1] = target: T1, PTPN2 (HiBIT-PTPN2 in 293T.109 cells) (Homo sapiens, UniProt P17706); assay: HiBiT Degradation 293T.109 PTPN2 (Nano-Glo HiBiT Lytic Assay); format: cell-based; conditions: 24.0 hours
T1 construct: expressed in transfected cells; host or cells: 293T.109 (293T WT from ATCC)
T1 sequence (P17706 1-415): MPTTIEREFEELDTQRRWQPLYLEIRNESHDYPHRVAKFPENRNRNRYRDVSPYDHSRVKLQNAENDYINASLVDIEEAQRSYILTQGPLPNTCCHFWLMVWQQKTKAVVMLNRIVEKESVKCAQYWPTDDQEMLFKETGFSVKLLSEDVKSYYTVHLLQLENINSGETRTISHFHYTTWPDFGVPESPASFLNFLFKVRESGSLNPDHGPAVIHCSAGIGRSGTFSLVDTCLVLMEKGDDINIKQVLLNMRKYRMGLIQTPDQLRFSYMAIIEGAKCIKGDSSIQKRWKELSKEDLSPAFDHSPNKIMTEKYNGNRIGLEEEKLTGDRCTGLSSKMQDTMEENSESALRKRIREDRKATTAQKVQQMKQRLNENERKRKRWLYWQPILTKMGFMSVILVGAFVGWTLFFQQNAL
Outline: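 Degradation read-out: lytic HiBiT luminescence after 24 h treatment (37 °C, 5% CO2) of 5000 293T cells per well expressing HiBiT-fused PTPN2 from an N-terminal tag. Dosing was 11 points, half-log steps down from 10 μM, in duplicate; vehicle-treated and no-reagent wells served as controls.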

PTPN2 (B16F10.4 cells) = target: T2, PTPN2 (B16F10.4 cells) (Mus musculus, UniProt Q06180); assay: HiBiT Degradation B16F10.4 PTPN2; format: cell-based; conditions: 24.0 hours
T2 construct: HiBiT; host or cells: B16F10.4
T2 sequence (Q06180 1-406): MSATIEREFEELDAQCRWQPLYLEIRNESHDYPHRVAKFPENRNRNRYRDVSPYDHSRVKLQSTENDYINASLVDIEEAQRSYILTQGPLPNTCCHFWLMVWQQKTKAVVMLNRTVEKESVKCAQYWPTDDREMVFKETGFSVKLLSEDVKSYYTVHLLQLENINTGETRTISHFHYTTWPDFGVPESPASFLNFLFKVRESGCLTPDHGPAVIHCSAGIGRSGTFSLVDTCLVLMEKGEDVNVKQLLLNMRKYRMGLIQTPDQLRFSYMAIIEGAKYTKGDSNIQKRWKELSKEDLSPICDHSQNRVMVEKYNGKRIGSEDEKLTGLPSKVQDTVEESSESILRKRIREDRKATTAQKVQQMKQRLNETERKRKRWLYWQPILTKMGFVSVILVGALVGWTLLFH

Compound	DC50 [1] [µM]	DC50 (PTPN2 (B16F10.4 cells)) [µM]
C[C@@H]1CN(C(=O)Nc2cccc(CS(=O)(=O)N3CC[C@H](Nc4cccc(-c5sc(C(=O)O)c(OCC(=O)O)c5Cl)c4)CC3(C)C)c2)CCN1c1ccc2c(c1)n(C)c(=O)n2C1CCC(=O)NC1=O (stereo partly drawn) [Example 209, 3-(carboxymethoxy)-4-chloro-5-[3-[[(4S)-1-[[3-[[(3R)-4-[1-(2,6-dioxo-3-piperidyl)-3-methyl-2-oxo-benzimidazol-5-yl]-3-methyl-piperazine-1-carbonyl]amino]phenyl]methylsulfonyl]-2,2-dimethyl-4-piperidyl]amino]phenyl]thiophene-2-carboxylic acid]	0.05 to 0.2	0.05 to 0.2
C[C@H]1CN(C(=O)Nc2cccc(CS(=O)(=O)N3CC[C@H](Nc4cccc(-c5sc(C(=O)O)c(OCC(=O)O)c5Cl)c4)CC3(C)C)c2)CCN1c1ccc2c(c1)n(C)c(=O)n2C1CCC(=O)NC1=O (stereo partly drawn) [Example 210]	0.05 to 0.2	0.05 to 0.2
Cn1c(=O)n(C2CCC(=O)NC2=O)c2ccc(C3CN(C(=O)Nc4cccc(CS(=O)(=O)N5CC[C@H](Nc6cccc(-c7sc(C(=O)O)c(OCC(=O)O)c7Cl)c6)CC5(C)C)c4)CCC3F)cc21 (stereo partly drawn) [Example 212, 3-(carboxymethoxy)-4-chloro-5-[3-[[(4S)-1-[[3-[[3-[1-(2,6-dioxo-3-piperidyl)-3-methyl-2-oxo-benzimidazol-5-yl]-4-fluoro-piperidine-1-carbonyl]amino]phenyl]methylsulfonyl]-2,2-dimethyl-4-piperidyl]amino]phenyl]thiophene-2-carboxylic acid]	0.2 to 1	0.05 to 0.2
Cn1c(=O)n(C2CCC(=O)NC2=O)c2ccc([C@@H]3CN(C(=O)Nc4cccc(CS(=O)(=O)N5CC[C@H](Nc6cccc(-c7sc(C(=O)O)c(OCC(=O)O)c7Cl)c6)CC5(C)C)c4)CC[C@H]3F)cc21 (stereo partly drawn) [Example 213, 3-(carboxymethoxy)-4-chloro-5-[3-[[(4S)-1-[[3-[[(3R,4R)-3-[1-(2,6-dioxo-3-piperidyl)-3-methyl-2-oxo-benzimidazol-5-yl]-4-fluoro-piperidine-1-carbonyl]amino]phenyl]methylsulfonyl]-2,2-dimethyl-4-piperidyl]amino]phenyl]thiophene-2-carboxylic acid]	≥ 1	0.05 to 0.2
Cn1c(=O)n(C2CCC(=O)NC2=O)c2ccc([C@H]3CN(C(=O)Nc4cccc(CS(=O)(=O)N5CC[C@H](Nc6cccc(-c7sc(C(=O)O)c(OCC(=O)O)c7Cl)c6)CC5(C)C)c4)CC[C@@H]3F)cc21 (stereo partly drawn) [Example 214, 3-(carboxymethoxy)-4-chloro-5-[3-[[(4S)-1-[[3-[[(3S,4S)-3-[1-(2,6-dioxo-3-piperidyl)-3-methyl-2-oxo-benzimidazol-5-yl]-4-fluoro-piperidine-1-carbonyl]amino]phenyl]methylsulfonyl]-2,2-dimethyl-4-piperidyl]amino]phenyl]thiophene-2-carboxylic acid]	0.2 to 1	0.05 to 0.2
CC1(C)C[C@@H](Nc2cccc(-c3sc(C(=O)O)c(OCC(=O)O)c3Cl)c2)CCN1S(=O)(=O)Cc1cccc(NC(=O)NCCCc2cc3c4c(cccc4c2)N(C2CCC(=O)NC2=O)C3=O)c1 (stereo partly drawn) [Example 215, 3-(carboxymethoxy)-4-chloro-5-[3-[[(4S)-1-[[3-[3-[1-(2,6-dioxo-3-piperidyl)-2-oxo-benzo[cd]indol-4-yl]propylcarbamoylamino]phenyl]methylsulfonyl]-2,2-dimethyl-4-piperidyl]amino]phenyl]thiophene-2-carboxylic acid]	0.05 to 0.2	0.2 to 1
CC1(C)C[C@@H](Nc2cccc(-c3sc(C(=O)O)c(OCC(=O)O)c3Cl)c2)CCN1S(=O)(=O)Cc1cccc(NC(=O)C2CCN(c3ccc4c5c(cccc35)N(C3CCC(=O)NC3=O)C4=O)CC2)c1 (stereo partly drawn) [Example 216]	< 0.05	0.05 to 0.2
CC1(C)C[C@@H](Nc2cccc(-c3sc(C(=O)O)c(OCC(=O)O)c3Cl)c2)CCN1S(=O)(=O)Cc1cccc(NC(=O)NCCC2CCN(c3ccc4c5c(cccc35)C(=O)N4C3CCC(=O)NC3=O)CC2)c1 (stereo partly drawn) [Example 219, 3-(carboxymethoxy)-4-chloro-5-(3-(((4S)-1-((3-(3-(2-(1-(1-(2,6-dioxopiperidin-3-yl)-2-oxo-1,2-dihydrobenzo[cd]indol-6-yl)piperidin-4-yl)ethyl)ureido)benzyl)sulfonyl)-2,2-dimethylpiperidin-4-yl)amino)phenyl)thiophene-2-carboxylic acid]	0.05 to 0.2	< 0.05
CC1(C)C[C@@H](Nc2cccc(-c3sc(C(=O)O)c(OCC(=O)O)c3Cl)c2)CCN1S(=O)(=O)Cc1cccc(NC(=O)CCC(=O)NCc2ccc3c4c(cccc24)C(=O)N3C2CCC(=O)NC2=O)c1 (stereo partly drawn) [Example 220, 3-(carboxymethoxy)-4-chloro-5-(3-(((4S)-1-((3-(4-(((1-(2,6-dioxopiperidin-3-yl)-2-oxo-1,2-dihydrobenzo[cd]indol-6-yl)methyl)amino)-4-oxobutanamido)benzyl)sulfonyl)-2,2-dimethylpiperidin-4-yl)amino)phenyl)thiophene-2-carboxylic acid]	0.05 to 0.2	0.05 to 0.2

Now from value to molecule:

DC50 [1] [µM]	DC50 (PTPN2 (B16F10.4 cells)) [µM]	Compound
0.05 to 0.2	0.05 to 0.2	CC1(C)C[C@@H](Nc2cccc(-c3sc(C(=O)O)c(OCC(=O)O)c3Cl)c2)CCN1S(=O)(=O)Cc1cccc(NC(=O)N2CCC(c3ccc4c5c(cccc35)N(C3CCC(=O)NC3=O)C4=O)CC2)c1 (stereo partly drawn) [Example 205, 3-(carboxymethoxy)-4-chloro-5-[3-[[(4S)-1-[[3-[[4-[1-(2,6-dioxo-3-piperidyl)-2-oxo-benzo[cd]indol-S-yl]piperidine-1-carbonyl]amino]phenyl]methylsulfonyl]-2,2-dimethyl-4-piperidyl]amino]phenyl]thiophene-2-carboxylic acid]
0.2 to 1	0.05 to 0.2	CC1(C)C[C@H](Nc2cccc(-c3sc(C(=O)O)c(OCC(=O)O)c3Cl)c2)CCN1S(=O)(=O)Cc1cccc(NC(=O)N2CCC(c3ccc4c(c3)n(C3COC3)c(=O)n4C3CCC(=O)NC3=O)CC2)c1 (stereo partly drawn) [Example 206, 3-(carboxymethoxy)-4-chloro-5-(3-(((4R)-1-((3-(4-(1-(2,6-dioxopiperidin-3-yl)-3-(oxetan-3-yl)-2-oxo-2,3-dihydro-1H-benzo[d]imidazol-5-yl)piperidine-1-carboxamido)benzyl)sulfonyl)-2,2-dimethylpiperidin-4-yl)amino)phenyl)thiophene-2-carboxylic acid]
0.05 to 0.2	0.05 to 0.2	Cn1c(=O)n(C2CCC(=O)NC2=O)c2ccc(C3CCN(C(=O)Nc4cccc(CS(=O)(=O)N5CC[C@H](Nc6cccc(-c7sc(C(=O)O)c(OCC(=O)O)c7Cl)c6)CC5(C)C)c4)CC3)c(Cl)c21 (stereo partly drawn) [Example 207, 3-(carboxymethoxy)-4-chloro-5-[3-[[(4S)-1-[[3-[[4-[4-chloro-1-(2,6-dioxo-3-piperidyl)-3-methyl-2-oxo-benzimidazol-5-yl]piperidine-1-carbonyl]amino]phenyl]methylsulfonyl]-2,2-dimethyl-4-piperidyl]amino]phenyl]thiophene-2-carboxylic acid]
0.2 to 1	0.2 to 1	Cc1cc2cc(C3CCN(C(=O)Nc4cccc(CS(=O)(=O)N5CC[C@H](Nc6cccc(-c7sc(C(=O)O)c(OCC(=O)O)c7Cl)c6)CC5(C)C)c4)CC3)ccc2n1C1CCC(=O)NC1=O (stereo partly drawn) [Example 208, 3-(carboxymethoxy)-4-chloro-5-[3-[[(4S)-1-[[3-[[4-[1-(2,6-dioxo-3-piperidyl)-2-methyl-indol-5-yl]piperidine-1-carbonyl]amino]phenyl]methylsulfonyl]-2,2-dimethyl-4-piperidyl]amino]phenyl]thiophene-2-carboxylic acid]
0.2 to 1	0.2 to 1	Cc1cn(C2CCC(=O)NC2=O)c2ccc(C3CCN(C(=O)Nc4cccc(CS(=O)(=O)N5CC[C@H](Nc6cccc(-c7sc(C(=O)O)c(OCC(=O)O)c7Cl)c6)CC5(C)C)c4)CC3)cc12 (stereo partly drawn) [Example 211, 3-(carboxymethoxy)-4-chloro-5-[3-[[(4S)-1-[[3-[[4-[1-(2,6-dioxo-3-piperidyl)-3-methyl-indol-5-yl]piperidine-1-carbonyl]amino]phenyl]methylsulfonyl]-2,2-dimethyl-4-piperidyl]amino]phenyl]thiophene-2-carboxylic acid]
0.2 to 1	0.2 to 1	CC1(C)C[C@@H](Nc2cccc(-c3sc(C(=O)O)c(OCC(=O)O)c3Cl)c2)CCN1S(=O)(=O)Cc1cccc(NC(=O)N2CCC(c3cnc4c(c3)c3ccccc3n4C3CCC(=O)NC3=O)CC2)c1 (stereo partly drawn) [Example 218, 3-(carboxymethoxy)-4-chloro-5-[3-[[(4S)-1-[[3-[[4-[9-(2,6-dioxo-3-piperidyl)pyrido[2,3-b]indol-3-yl]piperidine-1-carbonyl]amino]phenyl]methylsulfonyl]-2,2-dimethyl-4-piperidyl]amino]phenyl]thiophene-2-carboxylic acid]
